Source: ChEMBL document CHEMBL3271985, “Partition coefficients and surface areas of some alkylbenzenes” (J Med Chem, 1976)

Assay: Octanol-water partition coefficient, log P of the compound

Structure (SMILES) | logP
c1ccc2c(c1)CCCC2 | 3.52
c1ccc(C2CCCC2)cc1 | 4.27
c1ccc(C2CCCCC2)cc1 | 4.64
c1ccc(C23CC4CC(CC(C4)C2)C3)cc1 | 5.43
c1cc2ccc1CCc1ccc(cc1)CC2 | 2.33
c1ccc2c(c1)CCC2 | 3.33
CC(C)c1ccccc1 [ISOPROPYLBENZENE] | 3.66
Cc1cccc(C)c1 [M-XYLENE] | 3.2
Cc1ccccc1C [O-XYLENE] | 3.12
Cc1ccc(C)cc1 [P-XYLENE] | 3.15
CC(C)(C)c1ccccc1 [tert-Butylbenzene] | 4.11
